Assay results reported in patent US7253282B2 (Hoffman-La Roche Inc., priority 2004, dated 2007).

Columns and labels:
[1] = target: T1, GST-LXR beta-LBD (human LXR beta, aa 155 to 460) (Homo sapiens, UniProt P55055); assay: Radioligand binding assay (SPA), LXR beta; settings: GST-LXR beta-LBD on SPA beads, read-out: LXRbeta Binding IC50
T1 construct: human LXR beta (aa 155 to 460); made in house; host or cells: E. coli BL21(pLysS)
T1 sequence (P55055 155-460): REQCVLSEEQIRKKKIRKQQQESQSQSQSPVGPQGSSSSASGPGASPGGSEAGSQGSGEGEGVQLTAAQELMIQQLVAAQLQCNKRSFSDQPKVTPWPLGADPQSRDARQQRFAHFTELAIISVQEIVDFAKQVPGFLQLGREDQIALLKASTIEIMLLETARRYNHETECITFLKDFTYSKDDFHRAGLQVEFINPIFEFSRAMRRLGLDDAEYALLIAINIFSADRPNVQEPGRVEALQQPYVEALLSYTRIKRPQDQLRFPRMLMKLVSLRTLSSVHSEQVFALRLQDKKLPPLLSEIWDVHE
Excerpt: (§1) Mammalian expression vectors were constructed to express full-length human LXR alpha and LXR beta. Bacterial expression vectors were constructed to produce glutathione-s-transferase (GST) fused to the ligand binding domains (LBD) of human LXR alpha (aa 164 to 447) and human LXR beta (aa 155 to 460). To accomplish this, the portions of the sequences encoding the LBDs were amplified from full-length clones by PCR and then subcloned into the plasmid vectors. Final clones were verified by DNA sequence analysis (Willy et al., Genes Dev. 1995, 9:1033-45; Song et al., Proc Natl Acad Sci USA. 1994, 91:10809-13).
(§2) Induction, expression, and purification of GST-LBD fusion proteins were performed in E. coli strain BL21(pLysS) cells by standard methods (Ref: Current Protocols in Molecular Biology, Wiley Press, edited by Ausubel et al).
(§3) LXR alpha and LXR beta receptor binding were assayed in buffer consisting of 50 mM HEPES, pH 7.4, 10 mM NaCl, 5 mM MgCl2. For each 96-well reaction, 500 ng of GST-LXRα-LBD or 700 ng of GST-LXR beta-LBD fusion proteins were bound to 80 μg or 40 μg SPA beads (Pharmacia Amersham) respectively, in a final volume of 50 μl by shaking. […] All binding assays were performed in 96-well plates and the amount of bound ligand was measured on a Packard TopCount using OptiPlates (Packard). Dose response curves were measured within a range of concentration from 10^−10 M to 10^−4 M.

[2] = target: T2, GST-LXRα-LBD (human LXR alpha, aa 164 to 447) (Homo sapiens, UniProt Q13133); assay: Radioligand binding assay (SPA), LXR alpha; settings: GST-LXRα-LBD on SPA beads, read-out: LXRalpha Binding IC50
T2 construct: human LXR alpha (aa 164 to 447); made in house; host or cells: E. coli BL21(pLysS)
T2 sequence (Q13133 164-447): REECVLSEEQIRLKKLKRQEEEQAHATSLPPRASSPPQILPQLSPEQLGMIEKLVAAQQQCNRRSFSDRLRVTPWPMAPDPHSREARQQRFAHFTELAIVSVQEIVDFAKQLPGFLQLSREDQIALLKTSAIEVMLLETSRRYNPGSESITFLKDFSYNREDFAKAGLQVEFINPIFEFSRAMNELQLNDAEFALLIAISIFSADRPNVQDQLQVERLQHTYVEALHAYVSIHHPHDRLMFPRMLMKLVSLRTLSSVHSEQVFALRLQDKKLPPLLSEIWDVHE
Excerpt: as §1, §2, §3

SMILES | IC50 [1] [nM] | IC50 [2] [nM]
O=S(=O)(c1ccccc1)N(CC(F)(F)F)[C@H]1CC[C@H](C(O)(C(F)(F)F)C(F)(F)F)CC1 [Example 1, trans N-(2,2,2-trifluoro-ethyl)-N-[4-(2,2,2-trifluoro-1-hydroxy-1-trifluoromethyl-ethyl)-cyclohexyl]-benzenesulfonamide] | 70 | 20
Cc1nn(C)c(Cl)c1S(=O)(=O)N(CC(F)(F)F)[C@H]1CC[C@H](C(O)(C(F)(F)F)C(F)(F)F)CC1 [Example 17] | 1400 | 1500
